Patent publication US5177082A, “Huperzines and analogs” (priority 1990, dated 1993)
Entries after “also recorded” stand apart in the source; their conditions may differ.

Experiments:
Mice = conditions: mouse, in vivo
patients = assay: Clinical side effects in patients with myasthenia gravis; format: in vivo, human
Protocol: Patients affected with myasthenia gravis (MG) with typical clinical symptoms which improved after using neostigmine were the subjects for testing and verification. […] It was generally used for at least ten days and each dosage was 0.4-0.5 mg. […] The injections were all given in the morning and on the morning prior to the injections anticholinesterase drugs were discontinued. Neither the patients nor the doctors knew which drug was being injected. Later, the symptoms, the duration of the improvements, if any, which were obtained by the drugs and the side effects were recorded. Based on these factors, the relative merits of the two drugs were established.

memory functions of rats = assay: Memory function of preconditioned rats after 48 hours; format: in vivo, rat
Protocol: To evaluate the impact on the memory function, preconditioned animals going through 5 shock-free runs were used as learned animals. After 48 hours the drug-free (control) animals required 14.4±8.9 shocks to become learned.

Rats = conditions: rat, in vivo

C/C=C1\[C@H]2C=C(C)C[C@]1(N)c1ccc(=O)[nH]c1C2 [Huperzine A, (5R, 9R, 11E)-5-amino-11-ethylidene-5,6,9,10-tetrahydro-7-methyl-5,9-methanocycloocta[b]pyridin-2(1H)-one]
Toxic Strength (Mice): 1.00
symptoms after single toxic dose (Mice): typical symptoms of cholinesterase inhibitor poisoning, such as whole body muscle fiber twitching, drooling, tears, increase bronchial secretions and incontinence of feces and urine
nausea vs neostigmine (patients; X^2 =15, P<0.001): more apt to cause nausea than was neostigmine
Abdominal pains, % (patients; control group): 5.9%
Abdominal pains, number of times (patients; control group): 21
Blurred vision, % (patients; control group): 3.2%
Blurred vision, number of times (patients; control group): 11
Changes in the rhythm of the heart, % (patients; control group): 3.1%
Changes in the rhythm of the heart, number of times (patients; control group): 11
Disturbed sleep, % (patients; control group): 0.8%
Disturbed sleep, number of times (patients; control group): 3
Dizziness, % (patients; control group): 20.3%
Dizziness, number of times (patients; control group): 72
Drooling, % (patients; control group): 3.5%
Drooling, number of times (patients; control group): 9
Increase in the number of bowel movements, % (patients; control group): 2.8%
Increase in the number of bowel movements, number of times (patients; control group): 10
Muscle bundle quivering, % (patients; control group): 10.4%
Muscle bundle quivering, number of times (patients; control group): 37
Myosis, % (patients; control group): 3.0%
Myosis, number of times (patients; control group): 13
Nausea, % (patients; control group): 12.9%
Nausea, number of times (patients; control group): 46
Perspiring, % (patients; control group): 7.0%
Perspiring, number of times (patients; control group): 25
Tinnitus, % (patients; control group): 3.7%
Tinnitus, number of times (patients; control group): 13
Vomiting, % (patients; control group): 2.8%
Vomiting, number of times (patients; control group): 10
cases with side effects (patients; control patients, 69 cases): 45 cases
cases with side effects, % (patients; control patients, 69 cases, X^2 =3.58, P>0.05): 65.21%
side effects other than nausea vs neostigmine (patients; muscle bundle quivering, dizziness, perspiring, blurred vision): lower side effects for each of the other items than neostigmine; also recorded: statistically lower than neostigmine; also recorded: lower side effects in all other areas than neostigmine
Abdominal pains, % (patients; noncontrol group, 128 cases): 6.5%
Abdominal pains, number of times (patients; noncontrol group, 128 cases): 80
Blurred vision, % (patients; noncontrol group, 128 cases): 1.8%
Blurred vision, number of times (patients; noncontrol group, 128 cases): 22
Changes in the rhythm of the heart, % (patients; noncontrol group, 128 cases): 1.0%
Changes in the rhythm of the heart, number of times (patients; noncontrol group, 128 cases): 13
Disturbed sleep, % (patients; noncontrol group, 128 cases): 0.4%
Disturbed sleep, number of times (patients; noncontrol group, 128 cases): 5
Dizziness, % (patients; noncontrol group, 128 cases): 8.1%
Dizziness, number of times (patients; noncontrol group, 128 cases): 100
Drooling, % (patients; noncontrol group, 128 cases): 2.0%
Drooling, number of times (patients; noncontrol group, 128 cases): 25
Increase in the number of bowel movements, % (patients; noncontrol group, 128 cases): 0.5%
Increase in the number of bowel movements, number of times (patients; noncontrol group, 128 cases): 11
Muscle bundle quivering, % (patients; noncontrol group, 128 cases): 4.0%
Myosis, % (patients; noncontrol group, 128 cases): 1.0%
Myosis, number of times (patients; noncontrol group, 128 cases): 13
Nausea, % (patients; noncontrol group, 128 cases): 7.8%
Nausea, number of times (patients; noncontrol group, 128 cases): 95
Perspiring, % (patients; noncontrol group, 128 cases): 4.8%
Perspiring, number of times (patients; noncontrol group, 128 cases): 59
Tinnitus, % (patients; noncontrol group, 128 cases): 3.1%
Tinnitus, number of times (patients; noncontrol group, 128 cases): 38
Vomiting, % (patients; noncontrol group, 128 cases): 1.2%
Vomiting, number of times (patients; noncontrol group, 128 cases): 15
shocks required to achieve the learned state (memory) (memory functions of rats; 0.03 mg/kg, ip, after 48 hours): 6.8±7.2 shocks
memory functions (Y-maze and brightness discrimination test) (memory functions of rats; normal male rats, 1/138 of the LD50 dosage): can strengthen the memory functions
Toxic Strength (Rats): 1.00
